Holding throughout (assay type): cell-based
The test system of assay [1] is Methicillin-susceptible Staphylococcus aureus strains. Nature of the assay: Drug susceptibility (MIC) of methicillin-susceptible clinical isolates. The method, then: (§1) In order to verify the inhibitory effect of the compound of formula 1 on antibiotic-resistant strains, drug susceptibility was evaluated by treating the compound of formula 1 with Staphylococcus aureus phenotype isolated from each patient. In an in vitro test for antibiotic development, the most important result can be MIC90 (minimum inhibitory concentration required to inhibit the growth of 90% of the total bacterial population). […] Appelbaum at Hershey Hospital who is recognized for its authority in the field of anti-infection worldwide.

The subject of assay [2] is Methicillin-resistant Staphylococcus aureus (MRSA) strains. Nature of the assay: Drug susceptibility (MIC) of MRSA clinical isolates. The method, then:
as §1

Assay [3] relates to Staphylococcus aureus ATCC 29213 (MSSA, standard strain). Description: Susceptibility test (MIC), standard strain. Here is the method: (§2) For the compound of formula 1, pharmacokinetic/pharmacodynamic experiments were conducted using a mouse infection model. To this end, experiments were conducted with Staphylococcus aureus ATCC 29213 (MSSA, standard strain) and 13B-382 (MRSA, clinical strain). As a medium, Mueller-Hinton broth or Cation-adjusted Mueller-Hinton broth was used. For the susceptibility test (minimum inhibitory concentration (MIC)), the compound of formula 1 was used.

The test system of assay [4] is Staphylococcus aureus 13B-382 (MRSA, clinical strain). Description: Susceptibility test (MIC), clinical strain. The method, then: as §2
[5] abbreviates: Methicillin-susceptible, n = 103.
[6] abbreviates: Staphylococcus aureus, Methicillin-susceptible, n = 103, read-out: MIC50.
Setting [7] is: Staphylococcus aureus, Methicillin-susceptible, n = 103, read-out: MIC90.
Setting [8] is: Staphylococcus aureus, MRSA, Methicillin-resistant, n = 100, read-out: MIC50.
Setting [9] is: Staphylococcus aureus, MRSA, Methicillin-resistant, n = 100, read-out: MIC90.

Values after ≈ are worked out from the molar mass of the structure shown. Like-named read-outs stand apart in the source and are kept apart here.

Take `CC(=O)NC[C@H]1CN(c2ccc(N3CCOCC3)c(F)c2)C(=O)O1` [Linezolid]: the “MIC Range” value in assay [1] (setting [5]) was in the range of 0.25 to 2.0 µg/mL; in assay [2] (Methicillin-resistant, n = 100), 0.25 to 2.0 µg/mL. The MIC50 in assay [1] (setting [6]) and in assay [2] (setting [8]) was 1 µg/mL (≈ 2.96 µM) throughout. Moreover, the MIC90 in assay [1] (setting [7]) and in assay [2] (setting [9]) was 2 µg/mL (≈ 5.93 µM) in each case.

For Teicoplanin, in assay [1] (setting [5]), the MIC50 (as a rule, an inhibitory concentration at the 50% level, which refers to growth in some studies and to a panel of isolates in others) stood at 1 µg/mL; the MIC90 (in general, the lowest concentration that inhibits either 90% of growth or 90% of the strains tested, depending on the study) came out at 2 µg/mL; the “MIC Range” value was 0.125 to 8.0 µg/mL. In assay [2] (Methicillin-resistant, n = 100), the MIC50 came to 1 µg/mL and the MIC90 was determined as 2 µg/mL.

As for `CC[C@H]1OC(=O)[C@H](C)[C@@H](O[C@H]2C[C@@](C)(OC)[C@@H](O)[C@H](C)O2)[C@H](C)[C@@H](O[C@@H]2O[C@H](C)C[C@H](N(C)C)[C@H]2O)[C@](C)(O)C[C@@H](C)CN(C)[C@H](C)[C@@H](O)[C@]1(C)O` [Azithromycin], the MIC50 is 1 µg/mL (≈ 1.34 µM) in assay [1] (setting [6]) and over 64 µg/mL in assay [2] (setting [8]). The MIC90 in assay [1] (setting [7]) and in assay [2] (setting [9]) was over 64 µg/mL in each case.

In the case of `CN[C@H](CC(C)C)C(=O)N[C@H]1C(=O)N[C@@H](CC(N)=O)C(=O)N[C@H]2C(=O)N[C@H]3C(=O)N[C@H](C(=O)N[C@H](C(=O)O)c4cc(O)cc(O)c4-c4cc3ccc4O)[C@H](O)c3ccc(c(Cl)c3)Oc3cc2cc(c3O[C@@H]2O[C@H](CO)[C@@H](O)[C@H](O)[C@H]2O[C@H]2C[C@](C)(N)[C@H](O)[C@H](C)O2)Oc2ccc(cc2Cl)[C@H]1O` [Vancomycin], the “MIC Range” value in assay [1] (setting [5]) is 1.0 to 2.0 µg/mL. The MIC50 in assay [1] (Staphylococcus aureus) amounted to 1 µg/mL (≈ 0.69 µM); in assay [2] (Staphylococcus aureus, MRSA), 1 µg/mL (≈ 0.69 µM). For the same compound, the MIC90 in assay [1] (Staphylococcus aureus) worked out at 2 µg/mL (≈ 1.38 µM); in assay [2] (Staphylococcus aureus, MRSA) it was 2 µg/mL (≈ 1.38 µM). Also, the MIC (in general, the lowest concentration that inhibits growth of the organism) was over 64 µg/mL in assay [2] (Staphylococcus aureus, MRSA / VRSA); 0.5 µg/mL (≈ 0.345 µM) in assay [3] (Staphylococcus aureus); 1 µg/mL (≈ 0.69 µM) in assay [4] (Staphylococcus aureus).

As for `Cc1onc(-c2ccccc2)c1C(=O)N[C@@H]1C(=O)N2[C@@H]1SC(C)(C)[C@@H]2C(=O)O` [Oxacillin], the MIC in assay [3] (Staphylococcus aureus ATCC 29213, read-out: MIC) came to 0.25 µg/mL (≈ 0.623 µM); in assay [4] (Staphylococcus aureus 13B-382, read-out: MIC), 16 µg/mL (≈ 39.9 µM).

For `CCCCCCCCCC(=O)N[C@@H](Cc1c[nH]c2ccccc12)C(=O)N[C@H](CC(N)=O)C(=O)N[C@@H](CC(=O)O)C(=O)N[C@@H]1C(=O)NCC(=O)N[C@@H](CCCN)C(=O)N[C@@H](CC(=O)O)C(=O)N[C@H](C)C(=O)N[C@@H](CC(=O)O)C(=O)NCC(=O)N[C@H](CO)C(=O)N[C@@H]([C@H](C)CC(=O)O)C(=O)N[C@@H](CC(=O)c2ccccc2N)C(=O)O[C@@H]1C` [Daptomycin], the “MIC Range” value in assay [1] (setting [5]) was in the range of 0.25 to 2.0 µg/mL; in assay [2] (Methicillin-resistant, n = 100), 0.25 to 4.0 µg/mL. Also, the MIC50 came out at 1 µg/mL (≈ 0.617 µM) in assay [1] (setting [6]) and 0.5 µg/mL (≈ 0.309 µM) in assay [2] (setting [8]). Besides, the MIC90 in assay [1] (setting [7]) stood at 1 µg/mL (≈ 0.617 µM); in assay [2] (setting [9]), 0.5 µg/mL (≈ 0.309 µM).

In the case of `C[C@H]1COc2c(N3CCN(C)CC3)c(F)cc3c(=O)c(C(=O)O)cn1c23` [Levofloxacin], the “MIC Range” value in assay [1] (setting [5]) was at most 0.06 to 32.0 µg/mL. Moreover, the MIC50 in assay [1] (setting [6]) turned out to be 0.25 µg/mL (≈ 0.692 µM); in assay [2] (setting [8]), 1 µg/mL (≈ 2.77 µM). For the same compound, the MIC90 in assay [1] (setting [7]) was 4 µg/mL (≈ 11.1 µM); in assay [2] (setting [9]), over 32 µg/mL.

Values taken from patent publication US20220031607A1, “INJECTION COMPOSITION CONTAINING FAB I INHIBITOR, AND PREPARATION METHOD THEREFOR” (CRYSTALGENOMICS, INC., priority 2019, published 2022).
